US20260193294A1, “POLYPEPTIDE INHIBITOR, AND PREPARATION METHOD THEREFOR AND USE THEREOF” (SHANGHAI HANSOH BIOMEDICAL CO., LTD., priority 2022, published 2026)
pIC50: −log10 of the molar value.

Legend:
[1] = biological target: T1, IL23R (Homo sapiens, UniProt Q5VWK5); assay: Competing with IL23 for binding to IL23R (HTRF, IL23/IL23R binding assay kit); conditions: 2 hours incubation at room temperature
T1 construct: Tag2 (identity not disclosed); purchased PerkinElmer 64BDPIL23PEH
T1 sequence (Q5VWK5 24-355 limits assumed): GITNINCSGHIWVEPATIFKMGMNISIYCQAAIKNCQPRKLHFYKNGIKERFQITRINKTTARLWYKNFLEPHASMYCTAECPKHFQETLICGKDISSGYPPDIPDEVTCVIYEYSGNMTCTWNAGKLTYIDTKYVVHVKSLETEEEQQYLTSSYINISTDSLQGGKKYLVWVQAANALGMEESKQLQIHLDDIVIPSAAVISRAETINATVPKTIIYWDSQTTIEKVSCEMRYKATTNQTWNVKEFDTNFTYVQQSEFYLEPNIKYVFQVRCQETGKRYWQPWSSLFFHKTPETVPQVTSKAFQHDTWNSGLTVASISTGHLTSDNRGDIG
Procedure: (§1) The compounds of the present disclosure were screened in IL23/IL23R BINDING ASSAY KITS (PerkinElmer Cat #64BDPIL23PEH). The screening of the compounds of the present disclosure was carried out by using a multi-well plate (suitable for HTRF determination). Generally, 2 μl of several compounds of the present disclosure and STANDARD SOLUTIONS in KIT were first respectively added to the wells of the multi-well plate. 4 μl of Tag1-IL23, 4 μl of Tag2-IL23R, and 10 μL of pre-mixed Anti-Tag1 Eu Cryptate Antibody and Anti-Tag2 d2 reagent were necessarily added to all the wells. The multi-well plate was protected from light by an opaque cover membrane, and the opaque cover membrane was then removed
as §1, with “removed after 2 hours of incubation at room temperature. The signal value was read by an HTRF-compatible detection instrument to detect IC50 value.” for “removed”
(§2) The inhibition rate was calculated as follows: […]
By using log (inhibitor) vs. response—Variable slope (four parameters) in Graphpad, the data of HTRF experiment results were subjected to non-linear regression fitting to fit a curve and obtain the IC50 value.

[2] = test system: IL23-induced rat otitis model; assay: In vivo pharmacodynamics in IL23-induced rat otitis model (ear thickening); set-up: species or system SD rats; conditions: 10 mg/kg, gavage, QD
Excerpt: To evaluate the in vivo efficacy of the compounds in an IL23-induced rat otitis model.
SD rats, 6-8 weeks old, male, purchased from Jiangsu GemPharmatech Co., Ltd.
• a. […]

[3] = test system: activation of STAT3 phosphorylation by hIL23 in DB cells; assay: Blocking the activation of STAT3 phosphorylation by hIL23 in DB cells (p-STAT3 ELISA); format: cell-based, Human; conditions: DB cells stimulated by rhIL-23 0.5 nM, half an hour; read-out: pStat3 IC50
Procedure: To determine the inhibitory activity of the compounds of the present disclosure on the activation of STAT3 phosphorylation by hIL23 in DB cells
The compounds produced above were added to DB (ATCC Cat #CRL-2289) cells to inhibit the signal transduction of rhIL-23 cytokine. The screening of compounds was carried out by a multi-well plate (suitable for ELISA assay). Generally, in the presence of some of the above compounds of the present disclosure, 6.25×10^6 cells/ml of DB cells were stimulated by rhIL-23 (0.5 nM, R&D SYSTEMS) in RPMI medium (Invitrogen) containing 10% of FBS, and after half an hour, lysis was carried out on ice using 50 μL of 2×lysis buffer (CST). The content of p-STAT3 in the lysate was determined by PathScan Phospho-Stat3 (Tyr705) Sandwich ELISA Kit (CST Cat #7300C), so as to calculate the activity of the compounds of the present disclosure in blocking rhIL23 signal transduction in DB cells.
as §2
By using log (inhibitor) vs. response—Variable slope (four parameters) in Graphpad, the data of ELISA experiment results were subjected to non-linear regression fitting to fit a curve and obtain the IC50 value.

CC(=O)NCCCC[C@@H]1NC(=O)[C@H](Cc2c[nH]c3c(C)cccc23)NC(=O)[C@H]([C@@H](C)O)NC(=O)[C@H](CC(N)=O)NC(=O)[C@@H](NC(C)=O)C(C)(C)SSC(C)(C)[C@@H](C(=O)N[C@@H](Cc2ccc(OCCN)cc2)C(=O)N[C@@H](Cc2ccc3ccccc3c2)C(=O)NC2(C(=O)N[C@@H](CCC(=O)O)C(=O)N[C@@H](CC(N)=O)C(=O)N[C@@H](Cc3cccnc3)C(=O)N(C)CCNC(=O)CCOCCOCC[N+](C)(C)CCNC(=O)COCCOCCNC(=O)COCCOCCNC(=O)CC[C@H](NC(=O)CCCCCCCCCCCCCCC(=O)O)C(=O)O)CCC(F)(F)CC2)NC1=O [Example 1-16-1]
pIC50 [1]: 8.56 | Inhibition rate on Day 4 (ear thickening) [2]: 70.77% | pIC50 [3]: 11.32
